Laboratory results reported in patent US20100068198A1, “TARGETING OF ALPHA-1 OR ALPHA-3 SUBUNIT OF NA+, K+-ATPASE IN THE TREATMENT OF PROLIFERATIVE DISEASES” (priority 2006, published 2010).
Like-named read-outs stand apart in the source and are kept apart here.

Experiments:
α1β1 Na+/K+-ATPase [1] = biological target: T1, α1β1 Na+/K+-ATPase (Rattus norvegicus, UniProt P06685); test: Na+,K+-ATPase activity assay on homogenates of Sf-9 cells expressing α1β1 isozyme (32Pi release from ATP); format: biochemical
T1 construct: made in house; host or cells: Sf-9 insect cells, baculovirus
Description: Samples were preincubated with the inhibitor for 10 min. The assay was started by the addition of ATP with 0.2 μCi γ[32P]-ATP (2 mM final concentration). […] Released 32Pi-Pi was converted into phosphomolybdate and extracted with isobutanol. The radioactivity in 150 μl of the organic phase was measured by liquid scintillation counting.

[2] = test system: α1β1, α2β1 and α3β1 Na,K-ATPases; test: Na+,K+-ATPase activity assay on Sf-9 homogenates, statements for all isozymes together; format: biochemical
Description: Na^+,K^+-ATPase activity was assayed on homogenates of Sf-9 cells expressing the α1β1, α2β1 and α3β1 isozymes. The initial rate of release of ^32Pi from γ[^32P]-ATP was measured. The ATPase activity of 30-40 μg total protein samples was measured in a final volume of 0.25 ml in a medium containing 120 mM NaCl, 30 mM KCl, 3 mM MgCl2, 0.2 mM EGTA, 30 mM Tris-HCl (pH 7.4)±particular concentrations of a tested agent, e.g., herein compound 2.
Samples were preincubated with the inhibitor for 10 min. The assay was started by the addition of ATP with 0.2 μCi γ[32P]-ATP (2 mM final concentration). Following 30 min incubation at 37° C. the tubes were placed on ice, and the reaction was terminated by the addition of 25 μL of 55% trichloroacetic acid. Released 32Pi-Pi was converted into phosphomolybdate and extracted with isobutanol. The radioactivity in 150 μl of the organic phase was measured by liquid scintillation counting. […] The specific activity was therefore determined as the difference in ATP hydrolysis in the presence and absence of 0.0001 M compound 2.
To determine the effect of compound 2 on the activity of the Na^+/K^+-ATPase and its various isozymes, α1β1, α2β1 and α3β1 sodium pump complexes were produced using the baculovirus expression system and dose-response curves to the compound were performed. […]

α2β1 Na+/K+-ATPase = biological target: T2, α2β1 Na+/K+-ATPase (Rattus norvegicus, UniProt P06686); test: Na+,K+-ATPase activity assay on homogenates of Sf-9 cells expressing α2β1 isozyme (32Pi release from ATP); format: biochemical
T2 construct: made in house; host or cells: Sf-9 insect cells, baculovirus

[3] = test system: C6 rat glioma, MXT mouse mammary carcinoma and mouse B16F10 melanoma cell lines; test: In vitro anti-tumour effect on three rodent cancer cell lines; format: cell-based; conditions: high doses (10 μM), FIG. 6B
From the text: We also made use of three murine cell lines, i.e., three cancer cell lines including the C6 rat glioma, the MXT mouse mammary adenocarcinomas and the mouse B16F10 melanoma models.
Then, we made use of three rodent cancer cell lines, i.e. the C6 rat glioma, the MXT mouse […] mammary carcinoma and the mouse B16F10 melanoma models.

[4] = test system: four human NSCLC cell lines; format: cell-based; conditions: three days, FIG. 6A
α3β1 Na+/K+-ATPase = biological target: T3, α3β1 Na+/K+-ATPase (Rattus norvegicus, UniProt P06687); test: Na+,K+-ATPase activity assay on homogenates of Sf-9 cells expressing α3β1 isozyme (32Pi release from ATP); format: biochemical
T3 construct: made in house; host or cells: Sf-9 insect cells, baculovirus

α1β1 Na+/K+-ATPase [5] = biological target: T1, α1β1 Na+/K+-ATPase; conditions: Table 4A, from Blanco et al. 2005; read-out: inhibition constant (Ki) α1β1; cited from earlier work

With `C[C@@H]1CC2(NC(=O)CS2)[C@]2(O)O[C@@H]3C[C@]4(CO)C5CC[C@]6(C)[C@@H](C7=CC(=O)OC7)CC[C@]6(O)[C@@H]5CC[C@H]4C[C@H]3O[C@@H]2O1` (stereo partly shown) [Compound 2] as the compound, how does the Ki (α1β1 Na+/K+-ATPase [1]; Sf-9 expressed α1β1, Table 4A, read-out: inhibition constant (Ki) α1β1) read?
Its Ki is 160 ± 70 nM.

What about the “potency of α1β1 inhibition relative to ouabain” value (α1β1 Na+/K+-ATPase [1]; ratio of Ki versus ouabain) of the same compound?
Its value is “approximately 100 times”.

What about the “ATPase activity at 0.0001 M compound versus 0.001 M ouabain” value ([2]; 0.0001 M compound 2) of the same compound?
Its value is “comparable to that obtained with 0.001 M ouabain”.

And the “effect on Na,K-ATPase isozymes” value ([2]; all α1β1, α2β1 and α3β1)?
Its value is “inhibitory effect”.

What about the Ki (α2β1 Na+/K+-ATPase) of the same compound?
Its Ki is 15 ± 8 nM.

What about the “anti-tumor effects in rodent cancer cell lines” value [3] of the same compound?
Its value is “displays actual anti-tumor effects”.

What about the “impairment of global growth (rank among four cardenolides)” value (from here on “impairment of global growth”) [4] of the same compound?
The value was “strongest”.

And the Ki (α3β1 Na+/K+-ATPase)?
Its Ki is 3.2 ± 3.4 nM.

Which Ki (α1β1 Na+/K+-ATPase [1]) does the source give for `C[C@H]1O[C@@H](O[C@H]2[C@@H](O)C[C@H](O[C@H]3[C@@H](O)C[C@H](O[C@H]4CC[C@@]5(C)[C@H](CC[C@@H]6[C@@H]5C[C@@H](O)[C@]5(C)[C@@H](C7=CC(=O)OC7)CC[C@]65O)C4)O[C@@H]3C)O[C@@H]2C)C[C@H](O)[C@@H]1O` [Digoxin, reference compound] here?
Its Ki is 930 ± 410 nM.

And the “impairment of global growth” value [4]?
The value was “weakest”.

Which Ki (α1β1 Na+/K+-ATPase [5]) does the source give for `C[C@@H]1O[C@@H](O[C@H]2C[C@@H](O)[C@]3(CO)[C@H]4[C@H](O)C[C@]5(C)[C@@H](C6=CC(=O)OC6)CC[C@]5(O)[C@@H]4CC[C@]3(O)C2)[C@H](O)[C@H](O)[C@H]1O` [Ouabain] here?
The Ki was 43000 ± 19000 nM.

And the “impairment of global growth” value [4]?
Its value is “digoxin<digitoxin<ouabain<Compound 2”.

For `C[C@H]1O[C@@H](O[C@H]2[C@@H](O)C[C@H](O[C@H]3[C@@H](O)C[C@H](O[C@H]4CC[C@@]5(C)[C@H](CC[C@@H]6[C@@H]5CC[C@]5(C)[C@@H](C7=CC(=O)OC7)CC[C@]65O)C4)O[C@@H]3C)O[C@@H]2C)C[C@H](O)[C@@H]1O` [digitoxin], which “impairment of global growth” value [4] is on record?
Its value is “digoxin<digitoxin<ouabain<Compound 2”.
